Data as given in patent US10335446B2, “Methods of treating diseases using grape proteins” (priority 2015, dated 2019).
“And” between values parts separate entries of the source, which are not always exact repeats. Equal values may be shown once. Read-outs that look alike come from different tables or passages of the source. Marks after values point to notes of the source that are not given here.

What was measured:
[1] = Diet-induced obesity (DIO) mice study: blood glucose, insulin, plasma lipids, body weight, food intake; assay type: in vivo, C57BL/6J male mice; details: Atorvastatin 20 mg/kg, test articles tid po 10 mL/kg + ad libitum
Molt-4-luc leukemia = assay type: in vivo
Method: Temperature and relative humidity were monitored daily.
The tumor cells were routinely subcultured twice weekly.
Whole body and metastatic bioluminescence were measured and recorded.
Tumor growth curve was plotted with median relative bioluminescence.

[2] = assay type: in vivo, female BALB/c nude mice
Method: At the time of routine monitoring, the animals were daily checked for any effects of tumor growth and treatments on normal behavior such as mobility, food and water consumption (by looking only), body weight gain/loss (body weights were measured twice weekly), eye/hair matting and any other abnormal effect as stated in the protocol. Death and observed clinical signs were recorded on the basis of the numbers of animals within each subset.
Animal body weight was monitored regularly as an indirect measure of toxicity (FIG. 54A-B). No group lost weight as a result of test article administration, except the prophylactic KHGD Group 4 which was found with sign of emaciation and dehydration due to the 3 days' whole-day supply of KHGD.

[3] = tested on: MDA-MB-436 human breast cancer; assay: Subcutaneous MDA-MB-436 human breast cancer xenograft model, tumor volume and weight; assay type: in vivo, female BALB/c nude mice
Method: The in vivo anti-tumor efficacy of KHJ, KH103, and KHGD in the subcutaneous MDA-MB-436 human breast cancer model in female BALB/c nude mice was evaluated.
The animals used were of the species Mus musculus, strain BALB/c nude, age 6-8 weeks, and female. The body weight was 18-22 g. The number of animals was 90 mice, plus spare. The animal supplier was Shanghai BK Laboratory Animal Co., LTD.
The tumor cells were routinely subcultured twice weekly by trypsin-EDTA treatment.
Each mouse was inoculated subcutaneously at the right flank with MDA-MB-436 tumor cells (1×10^7) in 0.1 ml of PBS supplemented with BD Matrigel (1:1) for tumor development. The prophylactic treatments were started 13 days before inoculation. The therapeutic treatments were started on day 9 after tumor inoculation when the average tumor size reached approximately 81 mm^3. Each group consisted of 10 tumor-bearing mice. The testing article was administrated to the mice according to the predetermined regimen as shown in the experimental design Table 21 (prophylactic) and Table 22 (therapeutic).
The major endpoint was to see if the tumor growth could be delayed or mice could be cured. Tumor size was measured twice weekly in two dimensions using a caliper, and the volume was expressed in mm^3 using the formula: V=0.5 a×b^2 where a and b are the long and short diameters of the tumor, respectively. The tumor size was then used for calculations of both T-C and T/C values. T-C was calculated with T as the time (in days) required for the mean volume of treatment group tumors to reach 600 mm^3, and C as the time (in days) for the mean volume of control group tumors to reach the same size. The T/C value (in percent) is an indication of antitumor effectiveness; T and C are the mean volumes of the treated and control groups, respectively, on a given day.
ΔTGI was calculated for each group using the formula: ΔTGI (%)=[1−(Ti−T0)/(Vi−V0)]×100; Ti is the average tumor volume of a treatment group on a given day, T0 is the average tumor volume of the treatment group on the day of treatment start, Vi is the average tumor volume of the vehicle control group on the same day with Ti, and V0 is the average tumor volume of the vehicle group on the day of treatment start.
Tumor pictures were taken and tumor weight was measured at the study termination. T/Cweight value (in percent) was calculated using the formula: T/Cweight%=Tweight/Cweight×100% where Tweight and Cweight were the mean tumor weights of the treated and vehicle control groups, respectively.
Statistical analyses of differences in tumor volume and tumor weight among the groups were conducted on the data obtained when the average tumor volume of vehicle-therapeutic group reached 2,000 mm^3 (Day 71 after inoculation).
One-way ANOVA was performed to compare tumor volume and tumor weight among groups, and when a significant F-statistics (a ratio of treatment variance to the error variance) was obtained, comparisons between groups were carried out with Dunnett t-tests.

3T3-L1 adipocytes = assay: Glucose uptake assay (2-deoxy-D-[3H]-glucose) in 3T3-L1 adipocytes; assay type: cell-based; details: for EC50: read-out: Insulin EC50
[4] = day 111 after the cell injection, positive control, treatment right after cell injection, of 6 mice
[5] = 2014 Aug. 27, insulin dose 0.01 nM
[6] = 2014 Aug. 27, insulin dose 0.03 nM
[7] = 2014 Aug. 27, insulin dose 0.09 nM
[8] = 2014 Aug. 27, insulin dose 0.27 nM
[9] = 2014 Aug. 27, insulin dose 7.41 nM
[10] = 2014 Aug. 27, insulin dose 22.2 nM
[11] = 2014 Aug. 27, insulin dose 66.7 nM
[12] = 2014 Aug. 27, insulin dose 200 nM
[13] = 2014 Aug. 28, insulin dose 0.27 nM
[14] = 2014 Aug. 28, insulin dose 2.47 nM
[15] = 2014 Aug. 28, insulin dose 7.41 nM
[16] = 2014 Aug. 28, insulin dose 22.2 nM
[17] = 2014 Aug. 28, insulin dose 66.7 nM
[18] = 2014 Aug. 28, insulin dose 200 nM
[19] = 2014 Jul. 11, insulin dose 0.82 nM
[20] = 2014 Jul. 11, insulin dose 7.41 nM
[21] = 2014 Jul. 11, insulin dose 22.22 nM
[22] = 2014 Jul. 11, insulin dose 66.67 nM
[23] = 2014 Jul. 11, insulin dose 200 nM
[24] = 2014 Jul. 14, insulin dose 0.09 nM
[25] = 2014 Jul. 14, insulin dose 0.82 nM
[26] = 2014 Jul. 14, insulin dose 2.47 nM
[27] = 2014 Jul. 14, insulin dose 7.41 nM
[28] = 2014 Jul. 14, insulin dose 22.2 nM
[29] = 2014 Jul. 14, insulin dose 66.7 nM
[30] = 2014 Jul. 14, insulin dose 200 nM
[31] = Insulin dose 0.09 nM, duplicates
[32] = Insulin dose 7.41 nM, duplicates
[33] = Insulin dose 22.2 nM, duplicates
[34] = Insulin dose 66.7 nM, duplicates
[35] = Insulin dose 200 nM, duplicates

CC(C)c1c(C(=O)Nc2ccccc2)c(-c2ccccc2)c(-c2ccc(F)cc2)n1CC[C@@H](O)C[C@@H](O)CC(=O)O [Atorvastatin]
body weight of the DIO mice [1]: significantly decrease
blood glucose level ([1]; DIO mice, 0-8 weeks): significantly decrease
insulin sensibility ([1]; DIO mice, 0-8 weeks): significantly increase

O=P1(N(CCCl)CCCl)NCCCO1 (stereo not shown) [Cyclophosphamide]
survival until day 150 (Molt-4-luc leukemia; all mice of the group): died
median relative bioluminescence (Molt-4-luc leukemia; day 50 after cell implantation, treatment given right after cell injection (therapeutic / positive control group), vehicle 153.43): 1.40
Animals # with bioluminescence signal (Molt-4-luc leukemia; [4]): 1
Survival animals # (Molt-4-luc leukemia; [4]): 5
survival of mice (Molt-4-luc leukemia; day 111 after the cell injection, six mice per group, vehicle: two mice died): one mouse died
day at which one mouse died (Molt-4-luc leukemia; mouse, in vivo): 57 days

CC(=O)O[C@H]1C(=O)[C@@]2(C)[C@H]([C@H](OC(=O)c3ccccc3)[C@]3(O)C[C@H](OC(=O)[C@H](O)[C@@H](NC(=O)c4ccccc4)c4ccccc4)C(C)=C1C3(C)C)[C@]1(OC(C)=O)CO[C@@H]1C[C@@H]2O [Paclitaxel]
mortality ([2]; Group 6, days after the start of therapeutic treatment, possibly due to drug toxicity): died on day 20 and day 63
BWL > 20% ([2]; mouse, in vivo): 0
Subtotal mice# lost/N ([2]; therapeutic arm): 2/10
mortality ([2]; therapeutic arm, number of animals, n=10): 2^a (D20, 63)^b
Tumor Size at day 71 ([3]; therapeutic arm, Mean ± SEM at day 71 after inoculation): 637 ± 211 mm^3
Tumor Weight at day 78 ([3]; therapeutic arm, Mean ± SEM at day 78 after inoculation): 0.67 ± 0.23 g
ΔTGI ([3]; therapeutic arm, day 71): 71%
T-C at 600 mm^3 ([3]; therapeutic arm, tumor growth delay at tumor size 600 mm^3): 23 days
T/C ([3]; therapeutic arm, tumor volume at day 71 vs vehicle-therapeutic): 31%
T/Cweight ([3]; therapeutic arm, tumor weight at day 78 vs vehicle-therapeutic): 39.6%
antitumor activity ([3]; therapeutic arms): statistically significant antitumor activity
tumor growth delay at tumor size of 600 mm^3 ([3]; therapeutic arms, compared with the vehicle group): 23 days
T/C value ([3]; therapeutic arms, day 71): 31%
mean tumor size ([3]; therapeutic arms, day 71 after tumor inoculation, vehicle 2,025, Paclitaxel 1.5 mg/kg, BIW×9 weeks): 637 mm^3

Insulin
% Activity (3T3-L1 adipocytes; [5]): 5% and 6%
Count (3T3-L1 adipocytes; [5]): 2169 and 2178
% Activity (3T3-L1 adipocytes; [6]): −8% and −12%
Count (3T3-L1 adipocytes; [6]): 2065 and 2030
% Activity (3T3-L1 adipocytes; [7]): 6% and 4%
Count (3T3-L1 adipocytes; [7]): 2177 and 2166
% Activity (3T3-L1 adipocytes; [8]): 2% and −7%
Count (3T3-L1 adipocytes; [8]): 2145 and 2075
Count (3T3-L1 adipocytes; 2014 Aug. 27, insulin dose 0.82 nM): 2390 and 2146
Count (3T3-L1 adipocytes; 2014 Aug. 27, insulin dose 2.47 nM): 2131 and 2284
% Activity (3T3-L1 adipocytes; [9]): 54% and 42%
Count (3T3-L1 adipocytes; [9]): 2579 and 2483
% Activity (3T3-L1 adipocytes; [10]): 53% and 61%
Count (3T3-L1 adipocytes; [10]): 2573 and 2636
% Activity (3T3-L1 adipocytes; [11]): 90% and 93%
Count (3T3-L1 adipocytes; [11]): 2877 and 2903
% Activity (3T3-L1 adipocytes; [12]): 52% and 59%
Count (3T3-L1 adipocytes; [12]): 2565 and 2617
Count (3T3-L1 adipocytes; 2014 Aug. 28, insulin dose 0.01 nM): 1918 and 2052
Count (3T3-L1 adipocytes; 2014 Aug. 28, insulin dose 0.03 nM): 2281 and 2003
Count (3T3-L1 adipocytes; 2014 Aug. 28, insulin dose 0.09 nM): 2130 and 2378
% Activity (3T3-L1 adipocytes; [13]): 19% and 24%
Count (3T3-L1 adipocytes; [13]): 2258 and 2306
Count (3T3-L1 adipocytes; 2014 Aug. 28, insulin dose 0.82 nM): 2111 and 2261
% Activity (3T3-L1 adipocytes; [14]): 13% and 22%
Count (3T3-L1 adipocytes; [14]): 2208 and 2286
% Activity (3T3-L1 adipocytes; [15]): 39% and 41%
Count (3T3-L1 adipocytes; [15]): 2427 and 2442
% Activity (3T3-L1 adipocytes; [16]): 84% and 48%
Count (3T3-L1 adipocytes; [16]): 2812 and 2503
% Activity (3T3-L1 adipocytes; [17]): 75% and 85%
Count (3T3-L1 adipocytes; [17]): 2736 and 2827
% Activity (3T3-L1 adipocytes; [18]): 85% and 56%
Count (3T3-L1 adipocytes; [18]): 2813 and 2574
Count (3T3-L1 adipocytes; 2014 Jul. 11, insulin dose 0.09 nM): 760 and 587
Count (3T3-L1 adipocytes; 2014 Jul. 11, insulin dose 0.27 nM): 709 and 761
% Activity (3T3-L1 adipocytes; [19]): 28% and 17%
Count (3T3-L1 adipocytes; [19]): 800 and 746
Count (3T3-L1 adipocytes; 2014 Jul. 11, insulin dose 2.47 nM): 736 and 828
% Activity (3T3-L1 adipocytes; [20]): 47% and 70%
Count (3T3-L1 adipocytes; [20]): 884 and 992
% Activity (3T3-L1 adipocytes; [21]): 47% and 72%
Count (3T3-L1 adipocytes; [21]): 887 and 1000
% Activity (3T3-L1 adipocytes; [22]): 68% and 72%
Count (3T3-L1 adipocytes; [22]): 979 and 1000
% Activity (3T3-L1 adipocytes; [23]): 68% and 70%
Count (3T3-L1 adipocytes; [23]): 980 and 989
% Activity (3T3-L1 adipocytes; [24]): 3% and 11%
Count (3T3-L1 adipocytes; [24]): 1033 and 1075
Count (3T3-L1 adipocytes; 2014 Jul. 14, insulin dose 0.27 nM): 1118 and 1018
% Activity (3T3-L1 adipocytes; [25]): 12%
Count (3T3-L1 adipocytes; [25]): 1082 and 1083
% Activity (3T3-L1 adipocytes; [26]): 55% and 32%
Count (3T3-L1 adipocytes; [26]): 1317 and 1191
% Activity (3T3-L1 adipocytes; [27]): 59% and 41%
Count (3T3-L1 adipocytes; [27]): 1335 and 1238
% Activity (3T3-L1 adipocytes; [28]): 61% and 63%
Count (3T3-L1 adipocytes; [28]): 1347 and 1362
% Activity (3T3-L1 adipocytes; [29]): 64% and 42%
Count (3T3-L1 adipocytes; [29]): 1364 and 1243
% Activity (3T3-L1 adipocytes; [30]): 97% and 106%
Count (3T3-L1 adipocytes; [30]): 1545 and 1591
Count (3T3-L1 adipocytes; Insulin dose 0.03 nM, duplicates): 2039 and 1067
% Activity (3T3-L1 adipocytes; [31]): −3% and −4%
Count (3T3-L1 adipocytes; [31]): 2101 and 2091
Count (3T3-L1 adipocytes; Insulin dose 0.27 nM, duplicates): 2196 and 2340
Count (3T3-L1 adipocytes; Insulin dose 0.82 nM, duplicates): 2069 and 2263
% Activity (3T3-L1 adipocytes; [32]): 31% and 39%
Count (3T3-L1 adipocytes; [32]): 2395 and 2466
% Activity (3T3-L1 adipocytes; [33]): 58% and 63%
Count (3T3-L1 adipocytes; [33]): 2633 and 2673
% Activity (3T3-L1 adipocytes; [34]): 70% and 61%
Count (3T3-L1 adipocytes; [34]): 2736 and 2660
% Activity (3T3-L1 adipocytes; [35]): 80% and 62%
Count (3T3-L1 adipocytes; [35]): 2820 and 2663
EC50 (3T3-L1 adipocytes; run of 2014 Aug. 27): 2.54 nM
EC50 (3T3-L1 adipocytes; run of 2014 Aug. 28): 6.94 nM
EC50 (3T3-L1 adipocytes; run of 2014 Aug. 29): 6.66 nM
EC50 (3T3-L1 adipocytes; run of 2014 Jul. 11): 3.96 nM
EC50 (3T3-L1 adipocytes; run of 2014 Jul. 14): 2.46 nM
